The source of these data is article PMC8333425, “Discovery of a dual Ras and ARF6 inhibitor from a GPCR endocytosis screen” (Nature Communications, 2021).

Values joined by “and” are separate entries in the source; they are usually repeats but may differ in a detail not shown here. Equal entries are not always repeated.

The subject of experiment [1] is Ras. The experiment in a line: GST-Raf1-RBD pull-down of AT1R-mediated Ras activation. Type of experiment: cell-based, human. The note with it: for Ras-GTP over total Ras, GST-Raf1-RBD pull-down, AT1R: Comp 21 50 μM, individual experiments. An excerpt: Since 21 inhibited both ERK1/2 and Akt activation by GPCRs and EGFR, we looked at a common target involved in both pathways. The small G protein Ras is an upstream regulator of both Ras-RAF-MEK-ERK and PI3K/Akt signaling pathways[35],[36]. Therefore, we explored 21’s ability to inhibit Ras activity using GST-Raf1-Ras-binding domain (RBD) in a pull-down assay. A reduction of 60% in GTP-bound Ras was noticed in pulled-down from cells treated with 21 and stimulated with either AT1R or EGFR, as compared to vehicle-treated cells (Fig. 4a, b). Complementary to this in vitro assay, we generated a Ras BRET assay, using the Raf-Ras binding domain tagged with RlucII (Raf1-RBD-RlucII) and the rGFP at the PM (rGFP-CAAX) (Supplementary Fig. 3c), to assess 21’s effects on Ras activation kinetics. […] Overexpression of either the active form of Ras (G12V) or SOS1 anchored at the PM (SOS-CAAX) produced a robust basal BRET signal that was no longer modulated by receptor activation (Supplementary Fig. 3d). […] 21’s potency to inhibit ARF6 and Ras is also consistent with its relative efficacy for inhibiting AT1R internalization and MAPK, respectively, when used at 50 μM (e.g., around 7 and 70 times the respective IC50s) (Figs. 2e and 3a). We also assessed if 21 was acting as a pan small G protein inhibitor by testing its effect on Rho and Rac/Cdc42. […] To assess Rac/Cdc42 activity, we generated a Rac/Cdc42 BRET sensor that consisted of the PAK-CRIB domain fused to RlucII (PAK-CRIB-RlucII) and the rGFP-CAAX (Supplementary Fig. 3e). PAK-CRIB, which binds to active Rac/Cdc42, was recruited to the PM upon AngII stimulation of cells and generated a robust BRET signal, which was blocked by the overexpression of the DN Rac1-T17N. Overexpression of the constitutively active Rac1-Q61L increased the basal BRET, which was no longer modulated by AT1R stimulation (Supplementary Fig. 3f).
Activation of ARF1, ARF6, Ras, and Rho were assessed by using GST pull-down assays. […] ImageLab 5.2 software was used to quantify the digital blots as fold of the amount of pulled down protein over total protein. […]

Experiment [2] concerns the target T1, 384 kinases from the human genome (Homo sapiens, UniProt Q13043).
T1 construct: purchased Eurofin/DiscoverX
The experiment in a line: KINOMEscan kinase binding assay. The note with it: kinase MST1 (Entrez STK4). An excerpt:
(§1) We reasoned that because internalizing AT1R and its targeting to intracellular compartments can support continued MAPK signaling, and since 21 inhibits receptor internalization, it should also impede to some extent ERK1/2 activation. […] Receptor-mediated ERK1/2 signaling can involve upstream kinases such as PKC, BRAF, and MEK1[35],[36]. […] To exclude other kinases potentially involved in ERK1/2 and Akt activation as targets of 21, we ran a kinase binding assay (KINOMEscan™) on 384 kinases from the human genome. Remarkably, a very high selectivity score S(10) of 0.008 was found (Supplementary Data 3).
(§2) The chemical library used for initial screening was from Chembridge DiverSet™ (60,000 compounds), Maybridge HitFinder™ (16,000 compounds), Maybridge (selected, 16,000 compounds), SPECS (selected, 16000 compounds), Microsource Discovery Spectrum (2000 compounds), Biomol (natural products, 500 compounds), Prestwick (commercialized products, 1120 compounds), SIGMA LopacTM (1280 compounds) and internal collection (synthesized at Université de Montréal-IRIC, ~4000 compounds). Compounds were all assigned an Université de Montréal number (UM) for internal use. Screen was performed at IRIC HTS facility. KINOMEscan™ profiling was serviced by Eurofin/DiscoverX (San Diego, USA).
(§3) Description of Additional Supplementary Files […]
(§4) File Name: Supplementary Data 3
(§5) Description: KINOMEscan results. Compound 21’s effect was tested on 384 kinases. Data represent kinases binding to their ligands in presence of 10 µM of 21, as compared to DMSO (100%). Results are from one experiment and represent the average of duplicates. Three kinases (FLT3, KIT, and PDGFRB) out of 384 were more than 90% affected (selectivity score S(10) of 0.008). […]

The target of experiment [3] is T2, 384 kinases from the human genome (Homo sapiens, UniProt P49841).
T2 construct: purchased Eurofin/DiscoverX
T2 sequence (P49841 whole entry): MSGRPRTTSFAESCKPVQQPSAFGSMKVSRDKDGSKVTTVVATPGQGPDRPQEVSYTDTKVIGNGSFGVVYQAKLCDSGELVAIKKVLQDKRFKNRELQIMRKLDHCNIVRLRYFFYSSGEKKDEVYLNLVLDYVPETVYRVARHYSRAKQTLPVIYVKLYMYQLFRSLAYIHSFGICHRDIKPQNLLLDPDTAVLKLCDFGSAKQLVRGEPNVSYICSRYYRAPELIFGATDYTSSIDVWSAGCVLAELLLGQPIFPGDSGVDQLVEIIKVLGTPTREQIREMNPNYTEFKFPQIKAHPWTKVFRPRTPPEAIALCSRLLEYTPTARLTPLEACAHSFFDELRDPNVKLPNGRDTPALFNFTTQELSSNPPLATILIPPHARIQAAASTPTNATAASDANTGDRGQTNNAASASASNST
Description: KINOMEscan kinase binding assay. The note with it: kinase GSK3B (Entrez GSK3B).
Description: as §1, §2, §3, §4, §5

The target in experiment [4] is T3, 384 kinases from the human genome (Homo sapiens, UniProt Q04912).
T3 construct: purchased Eurofin/DiscoverX
T3 sequence (Q04912 25-1400): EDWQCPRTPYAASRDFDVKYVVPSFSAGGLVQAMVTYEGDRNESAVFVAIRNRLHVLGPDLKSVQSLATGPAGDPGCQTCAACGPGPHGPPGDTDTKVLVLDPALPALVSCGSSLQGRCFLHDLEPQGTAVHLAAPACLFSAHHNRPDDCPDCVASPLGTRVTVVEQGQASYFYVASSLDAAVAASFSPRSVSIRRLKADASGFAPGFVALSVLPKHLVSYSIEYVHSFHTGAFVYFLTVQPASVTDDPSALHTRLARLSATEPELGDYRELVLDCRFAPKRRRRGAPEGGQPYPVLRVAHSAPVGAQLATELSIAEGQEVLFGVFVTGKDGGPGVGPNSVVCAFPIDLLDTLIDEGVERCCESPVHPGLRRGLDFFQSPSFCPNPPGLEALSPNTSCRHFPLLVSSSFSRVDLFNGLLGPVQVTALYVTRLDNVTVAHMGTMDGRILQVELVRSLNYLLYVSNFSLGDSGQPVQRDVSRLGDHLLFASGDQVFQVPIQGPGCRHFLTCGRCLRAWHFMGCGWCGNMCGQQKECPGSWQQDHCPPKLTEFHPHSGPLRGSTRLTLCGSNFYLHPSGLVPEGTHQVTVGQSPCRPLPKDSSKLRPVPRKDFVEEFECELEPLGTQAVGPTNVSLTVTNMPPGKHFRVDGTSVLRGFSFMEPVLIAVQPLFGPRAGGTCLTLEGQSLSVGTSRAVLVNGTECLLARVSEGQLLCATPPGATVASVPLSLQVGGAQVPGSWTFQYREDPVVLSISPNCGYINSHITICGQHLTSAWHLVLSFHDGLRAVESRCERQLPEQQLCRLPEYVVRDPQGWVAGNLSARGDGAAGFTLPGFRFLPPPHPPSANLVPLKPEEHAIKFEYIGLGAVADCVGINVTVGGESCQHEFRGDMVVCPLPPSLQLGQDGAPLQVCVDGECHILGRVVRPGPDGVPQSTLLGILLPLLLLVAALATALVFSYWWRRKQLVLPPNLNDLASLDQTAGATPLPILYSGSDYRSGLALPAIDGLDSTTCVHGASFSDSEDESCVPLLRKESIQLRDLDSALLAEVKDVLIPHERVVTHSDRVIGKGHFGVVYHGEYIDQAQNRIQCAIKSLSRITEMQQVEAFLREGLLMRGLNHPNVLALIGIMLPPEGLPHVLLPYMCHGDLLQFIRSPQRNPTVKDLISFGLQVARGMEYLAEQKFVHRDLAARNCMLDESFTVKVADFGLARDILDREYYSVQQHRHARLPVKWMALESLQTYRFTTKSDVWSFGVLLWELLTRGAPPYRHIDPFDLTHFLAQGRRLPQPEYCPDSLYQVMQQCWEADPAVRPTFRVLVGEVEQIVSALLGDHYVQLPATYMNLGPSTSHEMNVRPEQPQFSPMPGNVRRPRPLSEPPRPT
Description: KINOMEscan kinase binding assay. The note with it: kinase MST1R (Entrez MST1R).
Description: as §1, §2, §3, §4, §5

Experiment [5] deals with T4, 384 kinases from the human genome (Homo sapiens, UniProt Q9H1R3).
T4 construct: purchased Eurofin/DiscoverX
T4 sequence (Q9H1R3 whole entry): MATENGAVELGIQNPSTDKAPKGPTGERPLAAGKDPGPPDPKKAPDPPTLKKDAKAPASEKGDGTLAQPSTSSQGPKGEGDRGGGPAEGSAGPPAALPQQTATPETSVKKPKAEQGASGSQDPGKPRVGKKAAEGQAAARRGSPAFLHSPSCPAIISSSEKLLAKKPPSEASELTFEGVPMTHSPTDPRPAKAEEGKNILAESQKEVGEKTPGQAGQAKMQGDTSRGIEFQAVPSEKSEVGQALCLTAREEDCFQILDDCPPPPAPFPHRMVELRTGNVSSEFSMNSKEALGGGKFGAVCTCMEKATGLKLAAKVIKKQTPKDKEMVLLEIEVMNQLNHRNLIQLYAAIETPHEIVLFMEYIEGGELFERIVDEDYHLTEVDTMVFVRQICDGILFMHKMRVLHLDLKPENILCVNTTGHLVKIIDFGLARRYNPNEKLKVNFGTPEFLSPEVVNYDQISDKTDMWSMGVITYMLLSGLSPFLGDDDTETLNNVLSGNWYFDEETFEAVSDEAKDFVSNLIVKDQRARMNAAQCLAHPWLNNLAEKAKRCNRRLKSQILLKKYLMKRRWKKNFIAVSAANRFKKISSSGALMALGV
Description: KINOMEscan kinase binding assay. The note with it: kinase MYLK2 (Entrez MYLK2).
Description: as §1, §2, §3, §4, §5

The target in experiment [6] is T5, 384 kinases from the human genome (Homo sapiens, UniProt O94804).
T5 construct: purchased Eurofin/DiscoverX
T5 sequence (O94804 whole entry): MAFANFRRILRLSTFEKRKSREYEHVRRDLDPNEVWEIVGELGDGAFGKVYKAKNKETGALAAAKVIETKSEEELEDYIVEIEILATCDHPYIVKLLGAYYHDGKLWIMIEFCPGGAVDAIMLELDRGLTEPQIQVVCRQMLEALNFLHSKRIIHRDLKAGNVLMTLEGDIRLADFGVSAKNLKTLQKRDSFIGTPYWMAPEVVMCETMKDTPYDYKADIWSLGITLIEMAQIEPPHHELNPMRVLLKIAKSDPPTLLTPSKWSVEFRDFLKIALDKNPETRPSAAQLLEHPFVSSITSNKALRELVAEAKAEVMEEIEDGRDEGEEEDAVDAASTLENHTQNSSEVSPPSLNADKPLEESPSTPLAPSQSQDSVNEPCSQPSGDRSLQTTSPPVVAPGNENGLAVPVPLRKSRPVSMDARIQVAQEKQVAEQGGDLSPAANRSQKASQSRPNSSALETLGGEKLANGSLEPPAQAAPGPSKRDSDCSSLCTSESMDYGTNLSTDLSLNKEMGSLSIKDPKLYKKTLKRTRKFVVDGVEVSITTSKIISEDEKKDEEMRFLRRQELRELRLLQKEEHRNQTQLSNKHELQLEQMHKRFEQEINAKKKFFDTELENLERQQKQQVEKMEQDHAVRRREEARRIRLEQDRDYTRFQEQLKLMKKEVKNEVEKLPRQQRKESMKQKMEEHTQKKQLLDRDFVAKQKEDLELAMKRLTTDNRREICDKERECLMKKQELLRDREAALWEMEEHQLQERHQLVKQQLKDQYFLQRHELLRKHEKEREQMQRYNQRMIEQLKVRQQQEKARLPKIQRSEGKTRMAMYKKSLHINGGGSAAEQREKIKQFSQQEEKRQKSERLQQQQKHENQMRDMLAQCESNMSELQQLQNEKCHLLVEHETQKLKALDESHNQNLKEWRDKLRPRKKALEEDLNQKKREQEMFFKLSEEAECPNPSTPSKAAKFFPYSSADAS
Description: KINOMEscan kinase binding assay. The note with it: kinase LOK (Entrez STK10).
Description: as §1, §2, §3, §4, §5

The target in experiment [7] is T6, 384 kinases from the human genome (Homo sapiens, UniProt Q99558).
T6 construct: purchased Eurofin/DiscoverX
T6 sequence (Q99558 whole entry): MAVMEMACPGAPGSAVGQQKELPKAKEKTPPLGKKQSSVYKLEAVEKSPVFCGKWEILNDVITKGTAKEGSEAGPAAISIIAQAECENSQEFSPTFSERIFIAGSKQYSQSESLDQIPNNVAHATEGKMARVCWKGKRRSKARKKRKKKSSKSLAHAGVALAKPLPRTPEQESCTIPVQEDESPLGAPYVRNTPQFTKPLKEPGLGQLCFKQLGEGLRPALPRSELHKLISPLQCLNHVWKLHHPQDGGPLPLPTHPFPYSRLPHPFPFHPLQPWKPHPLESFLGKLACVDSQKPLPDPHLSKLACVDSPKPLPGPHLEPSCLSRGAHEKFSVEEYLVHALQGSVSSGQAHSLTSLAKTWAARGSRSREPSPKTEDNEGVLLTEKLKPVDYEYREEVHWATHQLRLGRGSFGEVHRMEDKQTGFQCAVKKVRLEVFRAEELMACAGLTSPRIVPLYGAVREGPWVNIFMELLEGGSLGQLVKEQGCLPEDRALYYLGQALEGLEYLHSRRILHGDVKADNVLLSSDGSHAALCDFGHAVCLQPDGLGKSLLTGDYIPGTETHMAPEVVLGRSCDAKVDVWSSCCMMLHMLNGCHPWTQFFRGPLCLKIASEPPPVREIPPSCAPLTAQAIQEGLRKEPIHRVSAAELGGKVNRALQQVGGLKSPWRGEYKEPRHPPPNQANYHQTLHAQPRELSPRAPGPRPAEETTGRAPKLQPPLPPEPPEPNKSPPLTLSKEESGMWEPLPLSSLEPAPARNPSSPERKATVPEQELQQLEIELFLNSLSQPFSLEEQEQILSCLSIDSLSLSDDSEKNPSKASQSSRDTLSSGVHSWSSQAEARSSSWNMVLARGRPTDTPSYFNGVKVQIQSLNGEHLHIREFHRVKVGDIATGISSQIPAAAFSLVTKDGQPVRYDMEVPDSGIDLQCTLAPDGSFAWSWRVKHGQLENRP
Description: KINOMEscan kinase binding assay. The note with it: kinase NIK (Entrez MAP3K14).
Description: as §1, §2, §3, §4, §5

T1 sequence (Q13043 whole entry): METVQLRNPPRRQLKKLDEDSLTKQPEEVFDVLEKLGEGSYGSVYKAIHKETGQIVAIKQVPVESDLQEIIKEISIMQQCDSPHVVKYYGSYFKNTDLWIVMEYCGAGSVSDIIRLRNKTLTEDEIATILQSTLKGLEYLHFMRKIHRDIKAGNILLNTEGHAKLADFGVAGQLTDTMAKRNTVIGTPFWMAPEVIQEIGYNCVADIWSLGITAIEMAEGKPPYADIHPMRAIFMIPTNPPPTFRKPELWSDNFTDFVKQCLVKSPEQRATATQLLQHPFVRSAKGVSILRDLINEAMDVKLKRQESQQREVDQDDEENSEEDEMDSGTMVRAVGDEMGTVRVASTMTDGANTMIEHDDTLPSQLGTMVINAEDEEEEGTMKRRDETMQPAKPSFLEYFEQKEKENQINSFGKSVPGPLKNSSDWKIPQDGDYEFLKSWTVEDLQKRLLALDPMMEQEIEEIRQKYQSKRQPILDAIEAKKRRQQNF

As for `CC(C)C(=O)N1CCN(c2ccc(NC(=O)c3cc4ccccc4o3)cc2Cl)CC1` [Compound 21], the “reduction in GTP-bound Ras, AT1R-stimulated cells (pull-down)” value in experiment [1] (50 μM, compared to vehicle-treated cells) was found to be 60%. Besides, the “Ras-GTP over total Ras, GST-Raf1-RBD pull-down, AT1R” value is 0.2615 and 0.2571 and 0.1009 and 0.2909 and 0.08351 in experiment [1] (AngII); 0.2526 and 0.08678 and 0.1353 and 0.1074 and 0.09399 in experiment [1] (Ctrl (no AngII)). Further, the “Percent Control” value was 97% in experiment [2]; 99% in experiment [3]; 91% in experiment [4]; 80% in experiment [5]; 100% in experiment [6]; 66% in experiment [7].
